These results are taken from patent publication US10683297B2 (Sunshine Lake Pharma Co., Ltd., priority 2017, dated 2020).

Data set [1] is described as follows: Compound stability in rat liver microsomes. The format is in vitro ADME. Particulars: for CLint scaled at 5 μM: liver microsomes, pH 7.4, in vivo CLint extrapolated from rat liver microsome incubation; for half-life at 5 μM: read-out: Rat T1/2. The procedure, abridged:
(§1)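 Compounds (5 μM) incubated at 37 °C with human or rat liver microsomes (0.5 mg protein/mL) and 1.0 mM NADPH in 100 mM phosphate buffer pH 7.4, 0.05% DMSO, in duplicate. Sampled 0–60 min, quantified by LC/MS/MS as % of time zero; CLint extrapolated.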

For the next data set, the target named is T1, JAK2 (h) (Homo sapiens, UniProt O60674).
T1 construct: purchased Millipore UK Ltd (assays performed there as a service)
T1 sequence (O60674 whole entry): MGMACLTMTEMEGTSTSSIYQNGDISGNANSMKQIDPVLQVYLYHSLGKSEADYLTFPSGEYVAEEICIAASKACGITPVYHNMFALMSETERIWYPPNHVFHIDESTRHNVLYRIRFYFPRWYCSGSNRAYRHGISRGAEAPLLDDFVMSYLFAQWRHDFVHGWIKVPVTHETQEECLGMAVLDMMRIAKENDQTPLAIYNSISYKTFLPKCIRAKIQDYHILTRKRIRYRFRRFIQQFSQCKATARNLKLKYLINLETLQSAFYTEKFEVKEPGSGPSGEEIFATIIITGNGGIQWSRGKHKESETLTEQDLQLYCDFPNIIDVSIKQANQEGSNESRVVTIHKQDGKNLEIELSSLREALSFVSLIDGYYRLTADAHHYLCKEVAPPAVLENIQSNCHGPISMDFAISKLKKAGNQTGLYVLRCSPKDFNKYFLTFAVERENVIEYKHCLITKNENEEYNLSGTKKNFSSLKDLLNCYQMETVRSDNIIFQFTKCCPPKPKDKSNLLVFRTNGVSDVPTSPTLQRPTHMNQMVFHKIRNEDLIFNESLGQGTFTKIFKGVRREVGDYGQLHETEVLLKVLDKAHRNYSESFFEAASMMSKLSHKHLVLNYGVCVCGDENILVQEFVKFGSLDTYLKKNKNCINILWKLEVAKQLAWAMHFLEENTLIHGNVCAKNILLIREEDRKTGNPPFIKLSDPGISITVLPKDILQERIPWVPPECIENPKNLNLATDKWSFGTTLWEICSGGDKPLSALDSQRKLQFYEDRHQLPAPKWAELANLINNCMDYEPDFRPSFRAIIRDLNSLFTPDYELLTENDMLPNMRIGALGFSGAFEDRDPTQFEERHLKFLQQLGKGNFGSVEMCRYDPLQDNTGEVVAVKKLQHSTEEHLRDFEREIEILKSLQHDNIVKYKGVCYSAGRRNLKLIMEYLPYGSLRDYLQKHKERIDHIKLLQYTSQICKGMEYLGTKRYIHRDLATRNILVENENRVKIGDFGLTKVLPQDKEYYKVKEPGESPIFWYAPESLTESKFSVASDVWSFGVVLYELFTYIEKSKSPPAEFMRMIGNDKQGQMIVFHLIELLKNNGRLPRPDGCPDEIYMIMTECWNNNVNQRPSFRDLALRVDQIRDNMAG
The data set is described as follows: JAK2 (h) kinase assay. The format is biochemical. The following applies: [γ-33P-ATP] 10 μM or KM values; 40 minutes at room temperature. The protocol:
Kinase assays can be performed by measurement of incorporation of γ-^33P ATP into immobilized myelin basic protein (MBP). High binding white 384 well plates (Greiner) are coated with MBP (Sigma # M-1891) by incubation of 60 μL well of 20 μg/mL MBP in Tris-buffered saline (TBS; 50 mM Tris pH 8.0, 138 mM NaCl, 2.7 mM KCl) for 24 h at 4° C. Plates are washed 3× with 100 μL TBS. Kinase reactions are carried out in a total volume of 34 μL in kinase buffer (according to the need to make, for example, 5 mM Hepes pH 7.6, 15 mM NaCl, 0.01% bovine gamma globulin (Sigma #1-5506), 10 mM MgCl2, 1 mM DTT, 0.02% TritonX-100). Compound dilutions are performed in DMSO and added to assay wells to a final DMSO concentration of 1%. Each data point is measured in duplicate, and at least two duplicate assays are performed for each individual compound determination. Enzyme is added to final concentrations of 10 nM or 20 nM, for example. A mixture of unlabeled ATP and γ-^33P ATP is added to start the reaction (2×10^6 cpm of γ-^33P ATP per well (3000 Ci/mmole) and 10 μM unlabeled ATP, typically. The reactions are carried out for 1 hour at room temperature with shaking. Plates are washed 7× with TBS, followed by the addition of 50 μL well scintillation fluid (Wallac). Plates are read using a Wallac Trilux counter. This is only one format of such assays; various other formats are possible, as known to one skilled in the art.
The above assay procedure can be used to determine the IC50 for inhibition and/or the inhibition constant, Ki. […] The IC50 value is estimated by preparing a 10 point curve using a ½ log dilution series (for example, a typical curve may be prepared using the following compound concentrations: 3 μM, 1 μM, 0.3 μM, 0.1 μM, 0.03 μM, 0.01 μM, 0.003 μM, 0.001 μM, 0.0003 μM and 0 μM).
JAK2 (h) is incubated with 8 mM MOPS pH 7.0, 0.2 mM EDTA, 100 μM […], 10 mM MgAcetate and [γ-^33P-ATP] […] The reaction is initiated by the addition of the MgATP mix. After incubation for 40 minutes at room temperature, the reaction is stopped by the addition of 3% phosphoric acid solution. 10 μL of the reaction is then spotted onto a P30 filtermat and washed three times for 5 minutes in 75 mM phosphoric acid and once in methanol prior to drying and scintillation counting.
The kinase assays described herein were performed at Millipore UK Ltd, Dundee Technology Park, Dundee DD2 1SW, UK.

The nature of data set [2]: Compound stability in human liver microsomes. The format is in vitro ADME. The following applies: for half-life at 5 μM: human liver microsomes 0.5 mg protein/mL, compound 5 μM, NADPH 1.0 mM, pH 7.4, 37° C., read-out: Human T1/2; for CLint scaled at 5 μM: liver microsomes, pH 7.4, in vivo CLint extrapolated from human liver microsome incubation. The method, boiled down:
as §1

[3] abbreviates: rat liver microsomes 0.5 mg protein/mL, compound 5 μM, NADPH 1.0 mM, pH 7.4, 37° C.

What is called CLint scaled is the capacity of the preparation to metabolise the compound, expressed as a volume cleared per time. Usually IC50 stands for the concentration at which inhibition is half-maximal. Read a low IC50 as greater potency. On to `CCC1CN(c2ccc(C#N)cn2)CCC1Nc1nc(Nc2ccn3c(C)cnc3c2)ncc1Cl` (stereo not shown) [Example 2, 6-(4-((5-chloro-2-((3-methylimidazo[1,2-a]pyridin-7-yl)amino)pyrimidin-4-yl)amino)-3-ethylpiperidin-1-yl)nicotinonitrile], for which the CLint scaled at 5 μM in data set [1] is 52.4 mL/min/kg; in data set [2], 48.1 mL/min/kg. In addition, the half-life at 5 μM in data set [1] (setting [3]) is 0.789 h; in data set [2], 0.603 h. Also, on JAK2 (h), the IC50 amounted to 3 nM.
Regarding `CCC1CN(c2ccc(C#N)nn2)CCC1Nc1nc(Nc2ccn3c(C)cnc3c2)ncc1Cl` (stereo not shown) [Example 3, 6-(4-((5-chloro-2-((3-methylimidazo[1,2-a]pyridin-7-yl)amino)pyrimidin-4-yl)amino)-3-ethylpiperidin-1-yl)pyridazine-3-carbonitrile], the “Rat T1/2” value in data set [1] (setting [3]) is on record as “∞”. The 50% inhibitory concentration (IC50) against JAK2 (h) is 2 nM. In data set [2], the half-life at 5 μM came to 0.938 h and the intrinsic clearance (CLint scaled) at 5 μM is 30.9 mL/min/kg.
Regarding `Cc1cnc2cc(Nc3ncc(Cl)c(NC4CCN(c5ccc(C#N)nn5)CC4)n3)ccn12` [Example 12, 6-(4-((5-chloro-2-((3-methylimidazo[1,2-a]pyridin-7-yl)amino)pyrimidin-4-yl)amino)piperidin-1-yl)pyridazine-3-carbonitrile], the CLint scaled at 5 μM in data set [1] was 13.4 mL/min/kg; in data set [2], 14.9 mL/min/kg. In addition, the half-life at 5 μM in data set [1] (setting [3]) was 3.1 h; in data set [2], 1.95 h. Further, on JAK2 (h), it took 16 nM to reach half-maximal inhibition (IC50).
Turning to `N#Cc1ccc(N2CCC(Nc3nc(Nc4ccn5c(C(F)F)nnc5c4)ncc3Cl)CC2)nc1` [Example 30, 6-(4-((5-chloro-2-((3-(difluoromethyl)-[1,2,4]triazolo[4,3-a]pyridin-7-yl)amino)pyrimidin-4-yl)amino)piperidin-1-yl)nicotinonitrile], the intrinsic metabolic clearance (CLint scaled) at 5 μM is 30.8 mL/min/kg in data set [1] and 13.8 mL/min/kg in data set [2]. Also, the half-life at 5 μM is 1.34 h in data set [1] (setting [3]) and 2.1 h in data set [2]. On JAK2 (h), this compound displayed an IC50 of 10 nM.
For the compound `Cc1nc2cc(Nc3ncc(Cl)c(NC4CCN(c5ccc(C#N)cn5)CC4)n3)ccn2n1` [Example 32, 6-(4-((5-chloro-2-((2-methyl-[1,2,4]triazolo[1,5-a]pyridin-7-yl)amino)pyrimidin-4-yl)amino)piperidin-1-yl)nicotinonitrile], it took 7 nM to reach half-maximal inhibition against JAK2 (h) (IC50).
As to `CC(C)(O)c1nc2cc(Nc3ncc(Cl)c(NC4CCN(c5ccc(C#N)cn5)CC4)n3)ccn2n1` [Example 39, 6-(4-((5-chloro-2-((2-(2-hydroxypropan-2-yl)-[1,2,4]triazolo[1,5-a]pyridin-7-yl)amino)pyrimidin-4-yl)amino)piperidin-1-yl)nicotinonitrile], the CLint scaled at 5 μM was 10.1 mL/min/kg in data set [1] and 14.4 mL/min/kg in data set [2]. Also, the half-life at 5 μM was 4.1 h in data set [1] (setting [3]) and 2.01 h in data set [2]. For the same compound, the IC50 on JAK2 (h) was 5 nM.
`CC(C)(O)c1nnc2cc(Nc3ncc(Cl)c(NC4CCN(c5ccc(C#N)cn5)CC4)n3)ccn12` [Example 40]: the CLint scaled at 5 μM in data set [1] was 44.7 mL/min/kg; in data set [2], 4.8 mL/min/kg. The half-life at 5 μM was found to be 0.926 h in data set [1] (setting [3]) and 6.01 h in data set [2]. The compound also yielded a half-maximal inhibitory concentration (IC50) against JAK2 (h) of 1 nM.
The matching figures for `Cn1cnc2cc(Nc3ncc(Cl)c(NC4CCN(c5ccc(C#N)cn5)CC4)n3)ccc21` [Example 46, 6-(4-((5-chloro-2-((1-methyl-1H-benzo[d]imidazol-5-yl)amino)pyrimidin-4-yl)amino)piperidin-1-yl)nicotinonitrile]: 32.5 mL/min/kg, 27.5 mL/min/kg, 1.27 h, 1.05 h and 1 nM.
The matching figures for `Cn1nnc2cc(Nc3ncc(Cl)c(NC4CCN(c5ccc(C#N)nn5)CC4)n3)ccc21` [Example 47, 6-(4-((5-chloro-2-((l-methyl-1H-benzo[d][1,2,3]triazol-5-yl)amino)pyrimidin-4-yl)amino)piperidin-1-yl)pyridazine-3-carbonitrile]: 89.4 mL/min/kg, 16.1 mL/min/kg, 0.463 h, 1.8 h and 7 nM.
As for `Cc1nc2cc(Nc3ncc(Cl)c(NC4CCN(c5ccc(C#N)cn5)CC4)n3)ccc2n1C` [Example 48, 6-(4-((5-chloro-2-((1,2-dimethyl-1H-benzo[d]imidazol-5-yl)amino)pyrimidin-4-yl)amino)piperidin-1-yl)nicotinonitrile], the CLint scaled at 5 μM is 44.6 mL/min/kg in data set [1] and 46.9 mL/min/kg in data set [2]. Besides, the half-life at 5 μM came to 0.928 h in data set [1] (setting [3]) and 0.617 h in data set [2]. The compound also yielded an IC50 on JAK2 (h) of 0.7 nM.
As for `CC(C)(O)c1nc2cc(Nc3ncc(Cl)c(NC4CCN(c5ccc(C#N)nn5)CC4)n3)ccn2n1` [Example 55, 6-(4-((5-chloro-2-((2-(2-hydroxypropan-2-yl)-[1,2,4]triazolo[1,5-a]pyridin-7-yl)amino)pyrimidin-4-yl)amino)piperidin-1-yl)pyridazine-3-carbonitrile], the CLint scaled at 5 μM was 7.3 mL/min/kg in data set [1] and 1.3 mL/min/kg in data set [2]. Moreover, the half-life at 5 μM in data set [1] (setting [3]) turned out to be 5.67 h; in data set [2], 22.9 h. Besides, the IC50 against JAK2 (h) was 14 nM.
The matching figures for `CC(O)Cc1nc2cc(Nc3ncc(Cl)c(NC4CCN(c5ccc(C#N)nn5)CC4)n3)ccn2n1` (stereo not shown) [Example 56, 6-(4-((5-chloro-2-((2-(2-hydroxypropyl)-[1,2,4]triazolo[1,5-a]pyridin-7-yl)amino)pyrimidin-4-yl)amino)piperidin-1-yl)pyridazine-3-carbonitrile]: 50.9 mL/min/kg, 36.5 mL/min/kg, 0.813 h, 0.794 h and 15 nM.
The matching figures for `N#Cc1ccc(N2CCC(Nc3nc(Nc4ccc5c(c4)nnn5CC4CC4)ncc3Cl)CC2)nc1` [Example 60, 6-(4-((5-chloro-2-((1-(cyclopropylmethyl)-1H-benzo[d][1,2,3]triazol-5-yl)amino)pyrimidin-4-yl)amino)piperidin-1-yl)nicotinonitrile]: 732 mL/min/kg, 112 mL/min/kg, 0.0567 h, 0.26 h and 4 nM.
The matching figures for `CC(O)Cn1cnc2cc(Nc3ncc(Cl)c(NC4CCN(c5ccc(C#N)cn5)CC4)n3)ccc21` (stereo not shown) [Example 61, 6-(4-((5-chloro-2-((1-(2-hydroxypropyl)-1H-benzo[d]imidazol-5-yl)amino)pyrimidin-4-yl)amino)piperidin-1-yl)nicotinonitrile]: 86.2 mL/min/kg, 13.6 mL/min/kg, 0.48 h, 2.13 h and 1 nM.
Take `CC(C)(O)Cc1nc2ccc(Nc3ncc(Cl)c(NC4CCN(c5ccc(C#N)cn5)CC4)n3)cn2n1` [Example 67, 6-(4-((5-chloro-2-((2-(2-hydroxy-2-methylpropyl)-[1,2,4]triazolo[1,5-a]pyridin-6-yl)amino)pyrimidin-4-yl)amino)piperidin-1-yl)nicotinonitrile]: the CLint scaled at 5 μM in data set [1] is 80.6 mL/min/kg; in data set [2] it was 13.7 mL/min/kg. The figures for the half-life at 5 μM in data set [1] (setting [3]) and in data set [2] were 0.514 h and 2.12 h, respectively. The same compound displayed an IC50 against JAK2 (h) of 39 nM.
